Measured values from patent publication US9453062B2, “Glucose dependent insulinotropic polypeptide analogs, pharmaceutical compositions and use thereof” (Beijing Hanmi Pharmaceutical Co., Ltd., priority 2011, dated 2016).
Like-named read-outs stand apart in the source and are kept apart here. *1 amine or outer side, *2 acyl side, *3 side chain or, on linkers, in order; H or OH if unused. Where a SMILES comes first, the peptide text is derived from it. Bridges are numbered along the chain shown (N, C = ends). Where no end group is shown, it is not given here. Side-chain parts run from the residue outwards. [ ]: non-standard residue; d: D form. The star is where a group is joined. Phe(4-NO2) = N[C@@H](Cc1ccc([N+](=O)[O-])cc1)C(=O)O; γGlu = O=C(O)[C@H](CCC(=O)[*:2])N[*:1]; Palmitoyl = CCCCCCCCCCCCCCCC(=O)*; Met(O) = CS(=O)CC[C@H](N)C(=O)O; Nle = CCCC[C@H](N)C(=O)O; Aib = CC(C)(N)C(=O)O

How the values were obtained:
hGLP-1R = target: T1, hGLP-1R (Homo sapiens, UniProt P43220); assay: hGLP-1R-mediated cAMP induction assay in CHO cell line; assay type: cell-based; settings: for GLP-1R Relative Potency / GLP-1 Receptor Relative Potency: against native GLP-1;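 on all read-outs here: CHO cells expressing human GLP-1R, treated 30 min at 37 °C, intracellular cAMP measured by competitive fluorescent immunoassay and converted via a cAMP standard curve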
T1 construct: expressed in transfected cells; host or cells: CHO
T1 sequence (P43220 24-463): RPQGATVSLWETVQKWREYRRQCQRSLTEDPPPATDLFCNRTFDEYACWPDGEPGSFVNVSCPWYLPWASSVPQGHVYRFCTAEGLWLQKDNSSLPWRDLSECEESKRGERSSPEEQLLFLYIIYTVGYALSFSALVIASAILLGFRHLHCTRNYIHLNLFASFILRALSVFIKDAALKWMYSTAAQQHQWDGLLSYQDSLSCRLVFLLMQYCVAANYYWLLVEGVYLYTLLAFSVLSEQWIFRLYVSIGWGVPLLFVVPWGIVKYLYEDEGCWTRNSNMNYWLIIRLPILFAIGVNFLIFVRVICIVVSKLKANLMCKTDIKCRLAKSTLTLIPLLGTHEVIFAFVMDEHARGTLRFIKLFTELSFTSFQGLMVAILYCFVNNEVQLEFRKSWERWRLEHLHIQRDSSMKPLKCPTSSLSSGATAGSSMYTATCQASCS

hGIPR = target: T2, hGIPR (Homo sapiens, UniProt P48546); assay: hGIPR-mediated cAMP induction assay in CHO cell line; assay type: cell-based; settings: for GIPR Relative Potency / GIP Receptor Relative Potency: against native GIP
T2 construct: expressed in transfected cells; host or cells: CHO
T2 sequence (P48546 22-466): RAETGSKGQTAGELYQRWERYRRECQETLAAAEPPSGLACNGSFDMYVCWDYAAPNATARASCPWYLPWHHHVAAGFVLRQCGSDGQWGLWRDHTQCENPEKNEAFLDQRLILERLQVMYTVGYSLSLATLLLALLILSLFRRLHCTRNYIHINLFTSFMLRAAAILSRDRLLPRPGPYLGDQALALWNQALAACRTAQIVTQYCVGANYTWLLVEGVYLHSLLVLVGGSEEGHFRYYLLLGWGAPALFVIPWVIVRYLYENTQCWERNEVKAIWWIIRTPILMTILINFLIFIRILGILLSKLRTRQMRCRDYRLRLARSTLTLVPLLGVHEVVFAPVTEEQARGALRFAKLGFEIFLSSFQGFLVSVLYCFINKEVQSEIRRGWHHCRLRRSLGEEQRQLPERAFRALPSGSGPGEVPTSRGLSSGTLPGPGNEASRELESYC

[1] = Table 1, CHO/hGLP-1R cells, read-out: GLP-1R EC50
[2] = Table 1, CHO/hGIPR cells, read-out: GIPR EC50

CC[C@H](C)[C@H](NC(=O)[C@H](Cc1ccccc1)NC(=O)[C@H](CC(C)C)NC(=O)[C@H](CCCCN)NC(=O)[C@H](C)NC(=O)[C@H](C)NC(=O)[C@H](CCC(N)=O)NC(=O)[C@H](CCCCN)NC(=O)[C@H](CCC(=O)O)NC(=O)[C@H](CCSC)NC(=O)[C@H](Cc1ccc(O)cc1)NC(=O)[C@@H](NC(=O)[C@H](CO)NC(=O)[C@H](Cc1ccc(O)cc1)NC(=O)[C@H](CC(=O)O)NC(=O)[C@H](CO)NC(=O)[C@@H](NC(=O)[C@H](Cc1ccccc1)NC(=O)[C@@H](NC(=O)CNC(=O)[C@H](CCC(=O)O)NC(=O)C(C)(C)NC(=O)[C@@H](N)Cc1ccc(O)cc1)[C@@H](C)O)[C@@H](C)O)[C@@H](C)CC)C(=O)N[C@@H](CCC(=O)O)C(=O)N[C@@H](Cc1c[nH]c2ccccc12)C(=O)N[C@@H](CC(C)C)C(=O)N[C@@H](CCCCN)C(=O)N[C@@H](CC(N)=O)C(=O)NCC(N)=O [Compounds 026] (H-Y[Aib]EGTFTSDYSIYMEKQAAKLFIEWLKNG-NH2)
EC50 (hGLP-1R; [1]): 0.38 nM
GLP-1R Relative Potency (hGLP-1R; Table 1): 288%
GLP-1 Receptor Relative Potency (hGLP-1R; Table 3): 288
EC50 (hGIPR; [2]): 4.2 nM
GIPR Relative Potency (hGIPR; Table 1): 11.9%
GIP Receptor Relative Potency (hGIPR; Table 3): 11.9

CC[C@H](C)[C@H](NC(=O)[C@H](Cc1ccccc1)NC(=O)[C@H](CCC(=O)O)NC(=O)[C@H](CCCCN)NC(=O)[C@H](C)NC(=O)[C@H](C)NC(=O)[C@H](CCC(N)=O)NC(=O)[C@H](CCCCN)NC(=O)[C@H](CCC(=O)O)NC(=O)[C@H](CCSC)NC(=O)[C@H](Cc1ccc(O)cc1)NC(=O)[C@@H](NC(=O)[C@H](CO)NC(=O)[C@H](Cc1ccc(O)cc1)NC(=O)[C@H](CC(=O)O)NC(=O)[C@H](CO)NC(=O)[C@@H](NC(=O)[C@H](Cc1ccccc1)NC(=O)[C@@H](NC(=O)CNC(=O)[C@H](CCC(=O)O)NC(=O)C(C)(C)NC(=O)[C@@H](N)Cc1ccc(O)cc1)[C@@H](C)O)[C@@H](C)O)[C@@H](C)CC)C(=O)N[C@@H](C)C(=O)N[C@@H](Cc1c[nH]c2ccccc12)C(=O)N[C@@H](CC(C)C)C(=O)N[C@H](C(=O)N[C@@H](CCCCN)C(=O)NCC(N)=O)C(C)C [Compounds 025] (H-Y[Aib]EGTFTSDYSIYMEKQAAKEFIAWLVKG-NH2; N-terminus assumed)
EC50 (hGLP-1R; [1]): 0.837 nM
GLP-1R Relative Potency (hGLP-1R; Table 1): 131%
GLP-1 Receptor Relative Potency (hGLP-1R; Table 3): 131
EC50 (hGIPR; [2]): 1.5 nM
GIPR Relative Potency (hGIPR; Table 1): 33.3%
GIP Receptor Relative Potency (hGIPR; Table 3): 33.3

CCCCCCCCCCCCCCCC(=O)N[C@@H](CCC(=O)NCCCC[C@H](NC(=O)[C@@H](NC(=O)[C@H](C)NC(=O)[C@H](CCC(=O)O)NC(=O)[C@H](CCCCN)NC(=O)[C@H](CCC(=O)O)NC(=O)[C@H](CCSC)NC(=O)[C@H](Cc1ccc(O)cc1)NC(=O)[C@@H](NC(=O)[C@H](CO)NC(=O)[C@H](Cc1ccc(O)cc1)NC(=O)[C@H](CC(=O)O)NC(=O)[C@H](CO)NC(=O)[C@@H](NC(=O)[C@H](Cc1ccccc1)NC(=O)[C@@H](NC(=O)CNC(=O)[C@H](CCC(=O)O)NC(=O)C(C)(C)NC(=O)[C@@H](N)Cc1ccc(O)cc1)[C@@H](C)O)[C@@H](C)O)[C@@H](C)CC)C(C)C)C(=O)N[C@@H](CCC(=O)O)C(=O)N[C@@H](Cc1ccccc1)C(=O)N[C@H](C(=O)N[C@@H](C)C(=O)N[C@@H](Cc1c[nH]c2ccccc12)C(=O)N[C@@H](CC(C)C)C(=O)N[C@H](C(=O)N[C@@H](CCCCN)C(=O)NCC(=O)NCC(=O)N1CCC[C@H]1C(=O)N[C@@H](CO)C(=O)N[C@@H](CO)C(=O)NCC(=O)N[C@@H](C)C(=O)N1CCC[C@H]1C(=O)N1CCC[C@H]1C(=O)N1CCC[C@H]1C(=O)N[C@@H](CO)C(N)=O)C(C)C)[C@@H](C)CC)C(=O)O [Compound 092] (H-Y[Aib]EGTFTSDYSIYMEKEAVK([γGlu-Palmitoyl])EFIAWLVKGGPSSGAPPPS-NH2)
EC50 (hGLP-1R; Table 3, CHO hGLP1R cells): 0.39 nM
GLP-1 Receptor Relative Potency (hGLP-1R; Table 3): 256.4
EC50 (hGIPR; Table 3, CHO hGIPR cells): 0.15 nM
GIP Receptor Relative Potency (hGIPR; Table 3): 26.6

CCCCCCCCCCCCCCCC(=O)NCCCC[C@H](NC(=O)CNC(=O)[C@H](CCCCN)NC(=O)[C@@H](NC(=O)[C@H](CC(C)C)NC(=O)[C@H](Cc1c[nH]c2ccccc12)NC(=O)[C@H](C)NC(=O)[C@@H](NC(=O)[C@H](Cc1ccccc1)NC(=O)[C@H](CCC(=O)O)NC(=O)[C@H](CCCNC(=N)N)NC(=O)[C@@H](NC(=O)[C@H](C)NC(=O)[C@H](CCC(=O)O)NC(=O)[C@@H]1CCCCNC(=O)CC[C@H](NC(=O)[C@H](CO)NC(=O)[C@H](Cc2ccc(O)cc2)NC(=O)[C@H](CC(=O)O)NC(=O)[C@H](CO)NC(=O)[C@@H](NC(=O)[C@H](Cc2ccccc2)NC(=O)[C@@H](NC(=O)CNC(=O)[C@H](CCC(=O)O)NC(=O)C(C)(C)NC(=O)[C@@H](N)Cc2ccc(O)cc2)[C@@H](C)O)[C@@H](C)O)C(=O)N[C@@H](Cc2ccc(O)cc2)C(=O)N[C@@H](CCSC)C(=O)N[C@@H](CCC(=O)O)C(=O)N1)C(C)C)[C@@H](C)CC)C(C)C)C(N)=O [Compound 084] (H-Y[Aib]EGTFTSDYSEYMEKEAVREFIAWLVKGK(Palmitoyl)-NH2; lactam 12-16)
GLP-1 Receptor Relative Potency (hGLP-1R; Table 3): 22.2
GIP Receptor Relative Potency (hGIPR; Table 3): 8.8

CCCC[C@H](NC(=O)[C@H](C)NC(=O)[C@@H](NC(=O)[C@H](CO)NC(=O)[C@H](Cc1ccc(O)cc1)NC(=O)[C@H](CC(=O)O)NC(=O)[C@H](CO)NC(=O)[C@@H](NC(=O)[C@H](Cc1ccccc1)NC(=O)[C@@H](NC(=O)CNC(=O)[C@H](CCC(=O)O)NC(=O)C(C)(C)NC(=O)[C@@H](N)Cc1ccc(O)cc1)[C@@H](C)O)[C@@H](C)CC)[C@@H](C)CC)C(=O)N[C@@H](CCC(=O)O)C(=O)N[C@@H](CCCCN)C(=O)N[C@H](C(=O)N[C@@H](Cc1c[nH]cn1)C(=O)N[C@@H](CCC(N)=O)C(=O)N[C@@H](CCC(N)=O)C(=O)N[C@@H](CC(=O)O)C(=O)N[C@@H](Cc1ccccc1)C(=O)N[C@H](C(=O)N[C@@H](CC(N)=O)C(=O)N[C@@H](Cc1c[nH]c2ccccc12)C(=O)N[C@@H](CC(C)C)C(=O)N[C@@H](CC(C)C)C(=O)N[C@@H](C)C(=O)N[C@@H](CCC(N)=O)C(N)=O)C(C)C)[C@@H](C)CC [Compound 010] (H-Y[Aib]EGTFISDYSIA[Nle]EKIHQQDFVNWLLAQ-NH2; N-terminus assumed)
EC50 (hGLP-1R): > 2000 nM

Tyr-Aib-Glu-Gly-Thr-Phe-Thr-Ser-Asp-Tyr-Ser-Ile-Tyr-Nle-Glu-Lys-Glu-Ala-Gln-Gln-Asp-Phe-Val-Asn-Trp-Leu-Leu-Ala-Gln(NH2) (Y[Aib]EGTFTSDYSIY[Nle]EKEAQQDFVNWLLAQ-NH2) [Analog 020]
GLP-1R activation (GLP-1 activity) against native GLP-1 (hGLP-1R): less than 1%

CC[C@H](C)[C@H](NC(=O)[C@H](CO)NC(=O)[C@H](Cc1ccc(O)cc1)NC(=O)[C@H](CC(=O)O)NC(=O)[C@H](CO)NC(=O)[C@@H](NC(=O)[C@H](Cc1ccccc1)NC(=O)[C@@H](NC(=O)CNC(=O)[C@H](CCC(=O)O)NC(=O)C(C)(C)NC(=O)[C@@H](N)Cc1ccc(O)cc1)[C@@H](C)O)[C@@H](C)O)C(=O)N[C@@H](Cc1ccc([N+](=O)[O-])cc1)C(=O)N[C@@H](CC[S+](C)[O-])C(=O)N[C@@H](CCC(=O)O)C(=O)N[C@@H](CCCCN)C(=O)N[C@H](C(=O)N[C@@H](Cc1c[nH]cn1)C(=O)N[C@@H](CCC(N)=O)C(=O)N[C@@H](CCC(N)=O)C(=O)N[C@@H](CC(=O)O)C(=O)N[C@@H](Cc1ccccc1)C(=O)N[C@H](C(=O)N[C@@H](CC(N)=O)C(=O)N[C@@H](Cc1c[nH]c2ccccc12)C(=O)N[C@@H](CC(C)C)C(=O)N[C@@H](CC(C)C)C(=O)N[C@@H](C)C(=O)N[C@@H](CCC(N)=O)C(N)=O)C(C)C)[C@@H](C)CC (stereo partly drawn) [Compound 005] (H-Y[Aib]EGTFTSDYSI[Phe(4-NO2)][Met(O)]EKIHQQDFVNWLLAQ-NH2)
EC50 (hGLP-1R): > 2000 nM
